The text below walks through data of patent publication US12251381B2, “Aripiprazole dosing strategy” (Alkermes Pharma Ireland Limited, priority 2018, dated 2025).

This data set can be described thus: Phase 1 study: injection-site evaluation (injection-site reactions). It is filed as in vivo, human. The conditions noted are these: for patients who experienced ISRs / patients with injection-site pain: associated with the named injection; for Injection-site discomfort / Injection-site erythema / Injection-site induration / Injection-site pain / Injection-site swelling / Patients with at least one ISR: reactions associated with the named injection on day 1. As to the method: The duration of the study was approximately 6 months and consisted of screening, inpatient dosing, outpatient, and follow-up period (FIG. 1). […] A total of 160 patients were planned to be enrolled and randomized 1:1:1:1 to one of four treatment groups, as follows: 1-day initiation regimen groups (30 mg oral aripiprazole plus ALNCD, plus either AL 441 or 882 mg [on day 1] then 20 days of oral placebo), or 21-day initiation regimen groups (15 mg oral aripiprazole plus placebo IM, plus either AL 441 or 882 mg [on day 1] followed by 20 days of oral aripiprazole 15 mg/day). […] ALNCD or placebo were administered as IM injections in the gluteal muscle. For the AL doses, a single 441 mg dose was given in the deltoid muscle or a single 882 mg dose in the gluteal muscle contralateral to the ALNCD (or placebo) injection. All safety analyses were performed using observed data from the safety population, and measurements included adverse events (AEs), vital signs measurements, weight, laboratory test results, ECG findings, Columbia-Suicide Severity Rating Scale (C-SSRS) responses, movement disorder measures, CGI-S responses, and injection-site evaluation. AEs were assessed daily on days 1-15, every other day from days 17-25, on days 28 and 31, once-weekly from days 35 to 85, and on days 113 and 141. Injection-site evaluations were carried out daily on days 1-15, every other day from days 17-25, and on day 28. The injection site and surrounding area were evaluated with each injection (separately for the ALNCD or placebo injection site and AL site). Any observed injection-site reactions were followed until resolution.

Take `CCCCCCCCCCCC(=O)OCN1C(=O)CCc2ccc(OCCCCN3CCN(c4cccc(Cl)c4Cl)CC3)cc21` [AL, (7-(4-(4-(2,3-dichlorophenyl)piperazin-1-yl)butoxy)-2-oxo-3,4-dihydroquinolin-1(2H)-yl)methyl dodecanoate]: the “severity of Injection-Site Reactions (ISRs)” value (all ISRs associated with the injection) is “mild-to-moderate”. Besides, under “listed as AL 441 mg”, the “patients who experienced ISRs” value was 22.8%, the “patients with injection-site pain” value came to 20.3%, the Injection-site discomfort is reported as 1 (1.3) n (%) and the Injection-site erythema is 1 (1.3) n (%). In addition, where the note is “listed as AL 441 mg”, the Injection-site induration is 4 (5.1) n (%), the Injection-site pain was 16 (20.3) n (%), the Injection-site swelling is recorded as 2 (2.5) n (%) and the “Patients with at least one ISR” value is recorded as 18 (22.8) n (%). Where the note is “listed as AL 882 mg”, the “patients who experienced ISRs” value turned out to be 18.3%, the “patients with injection-site pain” value is 18.3%, the Injection-site discomfort was 0 n (%) and the Injection-site erythema is given as 0 n (%). Where the note is “listed as AL 882 mg”, the Injection-site induration is 2 (2.4) n (%), the Injection-site pain is reported as 15 (18.3) n (%), the Injection-site swelling was 1 (1.2) n (%) and the “Patients with at least one ISR” value is listed as 15 (18.3) n (%).
